According to US20140242093A1, “METHODS AND COMPOSITIONS FOR MODULATING THE INNATE IMMUNE RESPONSE AND/OR MYOGENESIS IN A MAMMALIAN SUBJECT” (FRED HUTCHINSON CANCER RESEARCH CENTER, priority 2011, published 2014):

Tested on: Cultured control human myoblasts
Assay: Beta-defensin 3 and innate immune response, real-time qPCR of IFIH1, ISG20, DEFB103
Format: cell-based
Method: Cultured control human myoblasts were grown to 80% confluence and infected with equivalent titers of lenti-GFP, lenti-DUX4-s and lenti-DUX4-fl in growth media supplemented with 8 μg/mL polybrene. Expression of innate immune responsive genes including IFIH1 (MDA5), ISG20 and DEFB103 were assessed by real-time qPCR as previously described at 24 hours (primer sequences below). For conditioned media, cells were infected with lenti-DUX4-fl for 12 hours, thoroughly washed 3 times with PBS and switched to fresh growth media to condition for 12 hours. Control conditioned media was produced from cells not infected with any lentivirus. Myoblasts were infected with lenti-GFP in either control conditioned media, lenti-DUX4-fl conditioned media or regular growth media supplemented with 1 μM human β-defensin 3 (Peptides International, Louisville, Ky.). Expression of innate immune responsive genes were examined after 24 hours.

DUX4-fl: full-length DUX4 protein (SEQ ID NO:110), expressed from lentiviral or pCS2 vectors or in vitro translated
expression of DEFB103A/B (β-defensin 3) (FIG. 7B): robustly induced expression of DEFB103A/B | induction of the innate immune response in myoblasts (RT-qPCR, similar titers, FIG. 7A): did not
